Data on 16 molecules can be found in patent US10166218B2, “3-(1H-indol-2-yl)-1H-pyrazolo[3,4-C]pyridines and therapeutic uses thereof” (Samumed, LLC, priority 2015, dated 2019).

What all share (type): cell-based
The subject of experiment [1] is SW480 colon cancer cells. The experiment can be described thus: Cell viability assay (CellTiter-Blue) in SW480 colon cancer cells. The note with it: Homo sapiens, 96 h, four days; for EC50: CellTiter-Blue; for inhibition at 10 µM: read-out: percent inhibition at 10 μM (given for EC50 of >10 μM). The essentials: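 Resazurin reduction (Ex 560/Em 590 nm, ~3 h reagent incubation) served as the viability read-out after SW480 cells were treated for four days at 37 °C. Doses ran from 10 μM down to 0.0045 μM in eight 1:3 steps. Curves fitted non-linearly for EC50, else % inhibition at 10 μM reported.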

The test system of experiment [2] is primary human fibroblasts derived from IPF patients (LL29 cells) treated with TGF-β1; α-smooth muscle actin (αSMA). The experiment can be described thus: Inhibition of the fibrotic process: αSMA staining in TGF-β1 treated primary human fibroblasts from IPF patients (LL29 cells). The note with it: Fibroblast, 96 h, TGF-β1 20 ng/mL, 4 days; for EC50: % cells positive for αSMA; for inhibition at 10 µM: αSMA, read-out: percent inhibition at 10 μM (given for EC50 of >10 μM). The essentials: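 EC50 values come from non-linear fits of the αSMA-positive percentage among SYTOX-excluded live cells, normalized to TGF-β1 plus DMSO controls, or appear as % inhibition at 10 μM when above 10 μM. Fibrosis was induced in IPF-derived LL29 fibroblasts by 20 ng/mL TGF-β1 over 4 days, with 1:2 compound dilutions from 10 μM.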

The test system of experiment [3] is IL-6 (THP-1 cells). The experiment is described as follows: Inhibition of IL-6 in LPS-stimulated THP-1 human monocyte cells (HTRF). The note with it: for EC50: inhibition of IL-6 in LPS-stimulated THP-1 cells, HTRF, 10-point dose-response starting from 10 μM; for inhibition at 10 µM: IL-6 assay in LPS-stimulated THP-1 cells, given only where EC50 >10 μM, meaning not given (top concentration 10 μM), read-out: percentage given in parentheses after EC50 >10. The essentials:
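Readout is the 665/620 nm HTRF ratio for secreted IL-6, normalized to DMSO wells, with EC50 from a variable-slope four-parameter fit, or % inhibition at 10 μM when above 10 μM. Cells (1% FBS, 24 h beforehand) got compound for 2 h, then LPS 500 ng/mL for 22 h at 37° C; top dose 10 μM, 0.1% DMSO.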

For `CCNCc1cncc(-c2cc3c(-c4cc5c(-c6cc(F)cc(NCCN(C)C)c6)cccc5[nH]4)n[nH]c3cn2)c1` [Compound 454, N^1-(3-(2-(5-(5-((Ethylamino)methyl)pyridin-3-yl)-1H-pyrazolo[3,4-c]pyridin-3-yl)-1H-indol-4-yl)-5-fluorophenyl)-N^2,N^2-dimethylethane-1,2-diamine], the EC50 worked out at 1480 nM in experiment [1], 583 nM in experiment [2] and 856 nM in experiment [3].

In the case of `CN(C)CCNc1cc(F)cc(-c2cccc3[nH]c(-c4n[nH]c5cnc(-c6cncc(NC(=O)C(C)(C)C)c6)cc45)cc23)c1` [Compound 456, N-(5-(3-(4-(3-((2-(Dimethylamino)ethyl)amino)-5-fluorophenyl)-1H-indol-2-yl)-1H-pyrazolo[3,4-c]pyridin-5-yl)pyridin-3-yl)pivalamide], the results for the EC50 in experiment [1], in experiment [2] and in experiment [3] were 437 nM, 444 nM and 286 nM, respectively.

Consider `CN(C)CCNc1cc(F)cc(-c2cccc3[nH]c(-c4n[nH]c5cnc(-c6cncc(CN(C)C)c6)cc45)cc23)c1` [Compound 461, N^1-(3-(2-(5-(5-((Dimethylamino)methyl)pyridin-3-yl)-1H-pyrazolo[3,4-c]pyridin-3-yl)-1H-indol-4-yl)-5-fluorophenyl)-N^2,N^2-dimethylethane-1,2-diamine], for which the EC50 in experiment [1] is 964 nM; in experiment [2], 1180 nM; in experiment [3], 657 nM.

With `CN(C)CCNc1cc(F)cc(-c2cccc3[nH]c(-c4n[nH]c5cnc(-c6ccccn6)cc45)cc23)c1` [Compound 476, N^1-(3-Fluoro-5-(2-(5-(pyridin-2-yl)-1H-pyrazolo[3,4-c]pyridin-3-yl)-1H-indol-4-yl)phenyl)-N^2,N^2-dimethylethane-1,2-diamine], the EC50 is 2860 nM in experiment [1], 582 nM in experiment [2] and 1560 nM in experiment [3].

On to `Cc1ccncc1-c1cc2c(-c3cc4c(-c5cc(F)cc(CNS(C)(=O)=O)c5)cccc4[nH]3)n[nH]c2cn1` [Compound 481, N-(3-Fluoro-5-(2-(5-(4-methylpyridin-3-yl)-1H-pyrazolo[3,4-c]pyridin-3-yl)-1H-indol-4-yl)benzyl)methanesulfonamide], for which the EC50 in experiment [1] turned out to be 1930 nM; in experiment [2], 712 nM; in experiment [3], 1180 nM.

Regarding `CS(=O)(=O)NCc1cc(F)cc(-c2cccc3[nH]c(-c4n[nH]c5cnc(-c6cncc(NC(=O)c7ccccc7)c6)cc45)cc23)c1` [Compound 487, N-(5-(3-(4-(3-Fluoro-5-(methylsulfonamidomethyl)phenyl)-1H-indol-2-yl)-1H-pyrazolo[3,4-c]pyridin-5-yl)pyridin-3-yl)benzamide], the figures for the inhibition at 10 µM in experiment [1] and in experiment [3] were 45.4% and 28.8%, respectively. Besides, the EC50 in experiment [1] was over 10000 nM; in experiment [2], 5010 nM; in experiment [3], over 10000 nM.

Consider `CS(=O)(=O)NCc1cc(F)cc(-c2cccc3[nH]c(-c4n[nH]c5cnc(-c6cncnc6)cc45)cc23)c1` [Compound 503, N-(3-Fluoro-5-(2-(5-(pyrimidin-5-yl)-1H-pyrazolo[3,4-c]pyridin-3-yl)-1H-indol-4-yl)benzyl)methanesulfonamide], for which the EC50 in experiment [1] is 4000 nM; in experiment [2], over 10000 nM; in experiment [3], 2980 nM. For the same molecule, the inhibition at 10 µM in experiment [2] is 0%.

Consider `Nc1cncc(-c2cc3c(-c4cc5ncccc5[nH]4)n[nH]c3cn2)c1` [Compound 507, 5-(3-(1H-Pyrrolo[3,2-b]pyridin-2-yl)-1H-pyrazolo[3,4-c]pyridin-5-yl) pyridin-3-amine], for which the EC50 in experiment [1] is 1230 nM; in experiment [2], over 10000 nM; in experiment [3] it was 404 nM. The inhibition at 10 µM in experiment [2] was determined as 0%.

For the molecule `c1cnc2cc(-c3n[nH]c4cnc(-c5cncc(CNCC6CCCC6)c5)cc34)[nH]c2c1` [Compound 529, 1-(5-(3-(1H-Pyrrolo[3,2-b]pyridin-2-yl)-1H-pyrazolo[3,4-c]pyridin-5-yl)pyridin-3-yl)-N-(cyclopentylmethyl)methanamine], the inhibition at 10 µM in experiment [1] and in experiment [2] was 0% each time. Further, the half-maximal effective concentration (EC50) in experiment [1] was over 10000 nM; in experiment [2] it was over 10000 nM; in experiment [3] it was 999 nM.

For the molecule `Fc1ccccc1-c1cccc2[nH]c(-c3n[nH]c4cnc(-c5cn[nH]c5)cc34)cc12` [Compound 567, 3-(4-(2-Fluorophenyl)-1H-indol-2-yl)-5-(1H-pyrazol-4-yl)-1H-pyrazolo[3,4-c]pyridine], the inhibition at 10 µM in experiment [1] worked out at 46.1%. Besides, the figures for the EC50 in experiment [1], in experiment [2] and in experiment [3] were over 10000 nM, 27 nM and 438 nM, respectively.

`CN(C)CCOc1cncc(-c2cc3c(-c4cc5c(-c6cccnc6)cccc5[nH]4)n[nH]c3cn2)c1` [Compound 591, N,N-Dimethyl-2-((5-(3-(4-(pyridin-3-yl)-1H-indol-2-yl)-1H-pyrazolo[3,4-c]pyridin-5-yl)pyridin-3-yl)oxy)ethan-1-amine]: the EC50 in experiment [1] worked out at 2780 nM; in experiment [2], 2190 nM; in experiment [3], 1460 nM.

Consider `Cn1cc(-c2cc3c(-c4cc5c(-c6ccncc6)cccc5[nH]4)n[nH]c3cn2)cn1` [Compound 600, 5-(1-Methyl-1H-pyrazol-4-yl)-3-(4-(pyridin-4-yl)-1H-indol-2-yl)-1H-pyrazolo[3,4-c]pyridine], for which, in experiment [1], the inhibition at 10 µM worked out at 45.1%. The EC50 in experiment [1] is over 10000 nM; in experiment [2], 13 nM; in experiment [3], 44 nM.

As to `O=C(CC1CCNCC1)Nc1cncc(-c2cc3c(-c4cc5c(-c6ccccn6)cccc5[nH]4)n[nH]c3cn2)c1` [Compound 621, 2-(Piperidin-4-yl)-N-(5-(3-(4-(pyridin-2-yl)-1H-indol-2-yl)-1H-pyrazolo[3,4-c]pyridin-5-yl)pyridin-3-yl)acetamide], in experiment [1], the inhibition at 10 µM was 29.3%. The half-maximal effective concentration (EC50) in experiment [1] was over 10000 nM; in experiment [2] it was 3140 nM; in experiment [3] it was 1650 nM.

On to `c1cc(N2CCCCC2)c2cc(-c3n[nH]c4cnc(-c5cncc(OC6CCCCC6)c5)cc34)[nH]c2c1` [Compound 635, 5-(5-(Cyclohexyloxy)pyridin-3-yl)-3-(4-(piperidin-1-yl)-1H-indol-2-yl)-1H-pyrazolo[3,4-c]pyridine], for which the figures for the inhibition at 10 µM in experiment [1] and in experiment [3] were 26.8% and 0%, respectively. Besides, the EC50 is over 10000 nM in experiment [1], 1320 nM in experiment [2] and over 10000 nM in experiment [3].

With `c1cc(-c2ccoc2)c2cc(-c3n[nH]c4cnc(-c5cn[nH]c5)cc34)[nH]c2c1` [Compound 711, 3-(4-(Furan-3-yl)-1H-indol-2-yl)-5-(1H-pyrazol-4-yl)-1H-pyrazolo[3,4-c]pyridine], the inhibition at 10 µM in experiment [1] came out at 45.1%; in experiment [3] it was 0%. Further, the 50% effective concentration (EC50) in experiment [1] is over 10000 nM; in experiment [2], 125 nM; in experiment [3] it was over 10000 nM.

Take `c1csc(-c2cccc3[nH]c(-c4n[nH]c5cnc(C6CCNCC6)cc45)cc23)c1` [Compound 725, 5-(Piperidin-4-yl)-3-(4-(thiophen-2-yl)-1H-indol-2-yl)-1H-pyrazolo[3,4-c]pyridine]: the results for the inhibition at 10 µM in experiment [1], in experiment [2] and in experiment [3] were 8.1%, 4.5% and 45.4%, respectively. The EC50 in experiment [1], in experiment [2] and in experiment [3] was over 10000 nM each time.
